Source: ChEMBL document CHEMBL3758085, “Synthesis and cytotoxicity of thieno[2,3-b]quinoline-2-carboxamide and cycloalkyl[b]thieno[3,2-e]pyridine-2-carboxamide derivatives” (Bioorg Med Chem, 2016)
Calls of active or inactive are those of the source. The calls are words filed in the database; no cut-off is given here.

Key:
MDA-MB-468 [1] = assay: Antiproliferative activity against human MDA-MB-468 cells assessed as cell growth at 1 uM incubated for 3 days by 3H-thymidine incorporation assay relative to control; assay type: functional; details: read-out: Activity
[2] = Antiproliferative activity against human HCT116 cells assessed as cell growth incubated for 3 days by 3H-thymidine incorporation assay relative to control; assay type: functional, cell-based; details: HCT-116
MDA-MB-231 [3] = assay: Antiproliferative activity against human MDA-MB-231 cells assessed as cell growth incubated for 3 days by 3H-thymidine incorporation assay relative to control; assay type: functional, cell-based
K562 = assay: Antiproliferative activity against human K562 cells assessed as cell growth incubated for 3 days by 3H-thymidine incorporation assay relative to control; assay type: functional, cell-based
[4] = Antiproliferative activity against human HCT116 cells assessed as cell growth at 1 uM incubated for 3 days by 3H-thymidine incorporation assay relative to control; assay type: functional; details: HCT-116, read-out: Activity
MDA-MB-231 [5] = assay: Antiproliferative activity against human MDA-MB-231 cells assessed as cell growth at 1 uM incubated for 3 days by 3H-thymidine incorporation assay relative to control; assay type: functional; details: read-out: Activity
MDA-MB-468 [6] = assay: Antiproliferative activity against human MDA-MB-468 cells assessed as cell growth incubated for 3 days by 3H-thymidine incorporation assay relative to control; assay type: functional, cell-based
Pseudomonas aeruginosa = assay: Antibacterial activity against Pseudomonas aeruginosa at 1 to 10 mg/ml incubated overnight by agar diffusion method; assay type: functional, organism-based
Escherichia coli = assay: Antibacterial activity against Escherichia coli DH5[alpha] at 1 to 10 mg/ml incubated overnight by agar diffusion method; assay type: functional, organism-based
Staphylococcus aureus = assay: Antibacterial activity against Staphylococcus aureus at 1 to 10 mg/ml incubated overnight by agar diffusion method; assay type: functional, organism-based

| SMILES | IC50 (MDA-MB-231 [3]) | IC50 (K562) | IC50 (MDA-MB-468 [6]) | growth at 1 µM (MDA-MB-468 [1]) | IC50 [2] | growth at 1 µM [4] | growth at 1 µM (MDA-MB-231 [5]) | Activity (Pseudomonas aeruginosa) | Activity (Escherichia coli) | Activity (Staphylococcus aureus) |
| --- | --- | --- | --- | --- | --- | --- | --- | --- | --- | --- |
| Nc1c(C(=O)Nc2cccc(F)c2)sc2nc3c(cc12)CCCC3 | 632 nM | 554 nM | 398 nM | 11% | 563 nM | 11% | 30% | – | – | – |
| COc1cccc(NC(=O)c2sc3nc4c(cc3c2N)CCC4)c1 | – | – | – | 63% | – | 92% | 95% | inactive | inactive | inactive |
| Nc1c(C(=O)Nc2ccccc2)sc2nc3c(cc12)CCCCC3 | 508 nM | 570 nM | 383 nM | 5% | 606 nM | 6% | 26% | – | – | – |
| Nc1c(C(=O)Nc2ccccc2)sc2nc3c(cc12)CCCC3 | 617 nM | 526 nM | 407 nM | 8% | 594 nM | 5% | 22% | – | – | – |
| Nc1c(C(=O)Nc2cccc3ccccc23)sc2nc3c(cc12)CCCC3 | 854 nM | 576 nM | 447 nM | 8% | 720 nM | 37% | 60% | inactive | inactive | inactive |
| Nc1c(C(=O)Nc2ccccc2Cl)sc2nc3c(cc12)CCCC3 | – | – | – | 95% | – | 94% | 119% | inactive | inactive | inactive |
| Cc1ccc2nc3sc(C(=O)Nc4ccccc4)cc3cc2c1 | – | – | – | 81% | – | 95% | 92% | – | – | – |
| CCOc1ccc2nc3sc(C(=O)Nc4ccc(C(C)=O)cc4)c(N)c3cc2c1 | – | – | – | 87% | – | 96% | 97% | – | – | – |
| COc1ccc(NC(=O)c2sc3nc4c(cc3c2N)CCCCCC4)c(OC)c1 | – | – | – | 110% | – | 109% | 119% | – | – | – |
| Cc1ccccc1NC(=O)c1sc2nc3c(cc2c1N)CCCC3 | – | – | – | 53% | – | 84% | 70% | – | – | – |
| COc1ccc(NC(=O)c2sc3nc4c(cc3c2N)CCCC4)cc1 | – | – | – | 84% | – | 99% | 98% | – | – | – |
| Nc1c(C(=O)Nc2ccccc2F)sc2nc3c(cc12)CCCC3 | – | – | – | 48% | – | 84% | 92% | – | – | – |
| Nc1c(C(=O)Nc2cccc(Cl)c2)sc2nc3c(cc12)CCCC3 | – | – | – | 58% | – | 80% | 98% | inactive | inactive | inactive |
| CCc1cccc(NC(=O)c2sc3nc4c(cc3c2N)CC(CC)CC4)c1 (stereo unspecified) | – | – | – | 12% | – | 73% | 73% | – | – | – |
| Nc1c(C(=O)Nc2cccc(Br)c2)sc2nc3c(cc12)CCC3 | – | – | – | 53% | – | 93% | 94% | – | – | – |
| Nc1c(C(=O)Nc2cccc(Cl)c2)sc2nc3c(cc12)CCCCC3 | – | – | – | 39% | – | 86% | 95% | – | – | – |
| CCCCOc1cccc(NC(=O)c2sc3nc4c(cc3c2N)CCCCC4)c1 | – | – | – | 53% | – | 97% | 100% | – | – | – |
| COc1ccc(NC(=O)c2sc3nc4c(cc3c2N)CCCCC4)cc1OC | – | – | – | 77% | – | 98% | 114% | – | – | – |

Now from value to compound, other results behind:

| IC50 (MDA-MB-231 [3]) | IC50 (K562) | IC50 (MDA-MB-468 [6]) | SMILES | growth at 1 µM (MDA-MB-468 [1]) | IC50 [2] | growth at 1 µM [4] | growth at 1 µM (MDA-MB-231 [5]) | Activity (Pseudomonas aeruginosa) | Activity (Escherichia coli) | Activity (Staphylococcus aureus) |
| --- | --- | --- | --- | --- | --- | --- | --- | --- | --- | --- |
| 524 nM | 580 nM | 391 nM | COc1cccc(NC(=O)c2sc3nc4c(cc3c2N)CCCCC4)c1 | 3% | 601 nM | 6% | 19% | – | – | – |
| 84 nM | 83 nM | 79 nM | Cc1c(Br)cccc1NC(=O)c1sc2nc3c(cc2c1N)CCC3 | 5% | 161 nM | 5% | 16% | – | – | – |
| 672 nM | 575 nM | 528 nM | Nc1c(C(=O)Nc2ccccc2F)sc2nc3c(cc12)CCCCC3 | 11% | 798 nM | 15% | 46% | – | – | – |
| 198 nM | 223 nM | 199 nM | Cc1c(Br)cccc1NC(=O)c1sc2nc3c(cc2c1N)CCCCC3 | 3% | 442 nM | 8% | 12% | – | – | – |
| 204 nM | 152 nM | 148 nM | Cc1cccc(NC(=O)c2sc3nc4c(cc3c2N)CCCC4)c1C | 3% | 199 nM | 5% | 4% | – | – | – |
| 221 nM | 153 nM | 134 nM | Cc1c(Cl)cccc1NC(=O)c1sc2nc3c(cc2c1N)CCCC3 | 6% | 191 nM | 3% | 15% | inactive | inactive | inactive |
| 448 nM | 558 nM | 351 nM | Nc1c(C(=O)Nc2cccc(F)c2)sc2nc3c(cc12)CCCCC3 | 10% | 543 nM | 29% | 28% | – | – | – |
| 170 nM | 83 nM | 83 nM | Cc1cccc(NC(=O)c2sc3nc4c(cc3c2N)CCCCCC4)c1C | 4% | 183 nM | 6% | 3% | – | – | – |
| 198 nM | 167 nM | 121 nM | Cc1cccc(NC(=O)c2sc3nc4c(cc3c2N)CCCCC4)c1C | 4% | 204 nM | 6% | 6% | – | – | – |
| 233 nM | 185 nM | 185 nM | Cc1c(Br)cccc1NC(=O)c1sc2nc3c(cc2c1N)CCCC3 | 3% | 207 nM | 5% | 5% | – | – | – |
| 190 nM | 210 nM | 160 nM | Cc1c(Cl)cccc1NC(=O)c1sc2nc3c(cc2c1N)CCCCC3 | 3% | 266 nM | 10% | 13% | – | – | – |
| 593 nM | 197 nM | 546 nM | Cc1c(Cl)cccc1NC(=O)c1sc2nc3c(cc2c1N)CCC3 | 4% | 218 nM | 3% | 11% | – | – | – |
| 587 nM | 562 nM | 372 nM | Nc1c(C(=O)Nc2ccccc2F)sc2nc3c(cc12)CCCCCC3 | 5% | 599 nM | 5% | 24% | – | – | – |
